# Laboratory results published in patent US10179789B2, “Methylenedioxybenzo [I] phenanthridine derivatives used to treat cancer” (Rutgers, The State University of New Jersey, priority 2009, dated 2019).
# Experiments:
# [1] = system: KBV-1 (variant that overexpresses efflux transporter MDR1); test: Cytotoxicity on KBV-1 (overexpresses MDR1); assay type: cell-based
# Procedure: (§1) The cytotoxicity was determined using the MTT-microtiter plate tetrazolinium cytotoxicity assay (MTA). The human lymphoblast RPMI 8402 and its camptothecin-resistant variant cell line, CPT-K5 was provided by Dr. Toshiwo Andoh (Aichi Cancer Center Research Institute, Nagoya, Japan). (36) The P388 mouse leukemia cell line and its CPT-resistant TOP1-deficient variant P388/CPT45 (37) were obtained from Michael R. Mattern and Randal K. Johnson (GlaxoSmithKline, King of Prussia, Pa.). The KB3-1 cell line and its multidrug-resistant variant KBV-1 (38) were obtained from K. V. Chin (The Cancer Institute of New Jersey, New Brunswick, N.J.). The KBH5.0 cell line as noted previously (21) was derived from KB3-1 by stepwise selection against Hoechst 33342. The cytotoxicity assay was performed using 96-well microtiter plates. Cells were grown in suspension at 37° C. in 5% CO2 and maintained by regular passage in RPMI medium supplemented with 10% heat inactivated fetal bovine serum, L-glutamine (2 mM), penicillin (100 U/mL), and Streptomycin (0.1 mg/mL). For determination of IC50, cells were exposed continuously for FOUR days to varying concentrations of drug, and MTT assays were performed at the end of the fourth day. […] All assays were performed at least twice in six replicate wells.
# (§2) The cytotoxicity of the representative compounds of the invention were also tested on cell line KB3-1 (parent cell line), KBV-1 (a variant that overexpresses efflux transporter MDR1) and KBH5.0 (a variant that overexpresses BCRP). Differences in the relative cytotoxicity between the parent and variant cell lines may be indicative of a compound that is a substrate for an efflux transporter. […] Accordingly, compounds of the invention of formula I may be useful to treat tumors that are resistant to other anticancer agents, especially anticancer agents that are susceptible to efflux by BCRP (e.g. anthracyclines, mitoxantrone, topotecan, irinotecan, bisanthrone, doxorubicin, daunorubicin, and epirubin.
# KB3-1 cell line = test: Cytotoxicity on KB3-1 (parent cell line); assay type: cell-based
# Procedure: as §1, §2
# [2] = system: RPMI 8402 human lymphoblast cells; test: Test B. MTT cytotoxicity assay, RPMI8402; assay type: cell-based
# Procedure: (§3) Test B. Cytotoxic Assays (Cancer Cell Lines and Efflux Transporter Cell Lines)
# as §1
# [3] = system: P388/CPT45 (CPT-resistant TOP1-deficient variant of P388); test: Test B. MTT cytotoxicity assay, P388/CPT45; assay type: cell-based, mouse; details: P388/CPT45; four days continuous exposure, MTT; read-out: Cytotoxicity IC50 P388/CPT45
# Procedure: as §3, §1
# [4] = system: CPT-K5 (camptothecin-resistant variant of RPMI 8402); test: Test B. MTT cytotoxicity assay, CPT-K5; assay type: cell-based, human
# Procedure: as §3, §1
# [5] = system: KBH5.0 (variant that overexpresses BCRP); test: Cytotoxicity on KBH5.0 (overexpresses BCRP); assay type: cell-based
# Procedure: as §1, §2
# [6] = system: P388 mouse leukemia cell line; test: Test B. MTT cytotoxicity assay, P388; assay type: cell-based
# Procedure: as §3, §1
# human topoisomerase I = biological target: T1, human topoisomerase I (Homo sapiens, UniProt P11387); test: Test A. Topoisomerase I-mediated DNA cleavage assay; assay type: biochemical; details: Relative Effective Concentration; relative to camptothecin arbitrarily assumed as 0.2; same 10% cleavage on plasmid DNA
# T1 construct: unnamed fusion partner (recombinant fusion protein, T7 expression system); made in house; host or cells: Escherichia coli
# T1 sequence (P11387 1-765): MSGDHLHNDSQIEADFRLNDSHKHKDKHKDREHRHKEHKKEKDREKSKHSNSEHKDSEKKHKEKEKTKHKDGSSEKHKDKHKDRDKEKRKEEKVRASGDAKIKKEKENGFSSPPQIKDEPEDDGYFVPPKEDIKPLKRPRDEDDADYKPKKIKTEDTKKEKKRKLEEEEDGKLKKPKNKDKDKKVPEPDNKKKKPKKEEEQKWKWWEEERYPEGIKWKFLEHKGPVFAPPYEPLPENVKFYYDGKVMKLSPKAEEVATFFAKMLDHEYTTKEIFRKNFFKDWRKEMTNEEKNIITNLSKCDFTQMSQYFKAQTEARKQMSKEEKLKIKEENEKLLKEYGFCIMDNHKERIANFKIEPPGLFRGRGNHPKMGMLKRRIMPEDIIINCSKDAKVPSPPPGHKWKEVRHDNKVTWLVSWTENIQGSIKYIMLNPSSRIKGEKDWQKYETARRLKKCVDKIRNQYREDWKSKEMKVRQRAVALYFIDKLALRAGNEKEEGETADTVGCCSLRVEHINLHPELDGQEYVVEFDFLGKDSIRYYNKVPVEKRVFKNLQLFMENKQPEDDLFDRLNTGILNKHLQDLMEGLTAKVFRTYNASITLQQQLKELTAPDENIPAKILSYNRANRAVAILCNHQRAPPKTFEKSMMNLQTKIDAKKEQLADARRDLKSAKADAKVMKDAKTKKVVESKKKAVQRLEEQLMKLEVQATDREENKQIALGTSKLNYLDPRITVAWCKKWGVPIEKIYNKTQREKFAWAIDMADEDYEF
# From the text: Test A. Topoisomerase I—Mediated DNA Cleavage Assay Human topoisomerase I was expressed in Escherichia coli and isolated as a recombinant fusion protein using a T7 expression system as described previously (31). Plasmid YepG was also purified by the alkali lysis method followed by phenol deproteination and CsCl/ethidium isopycnic centrifugation method as described (32). The 3′ end labeling of the plasmid was accomplished by digestion with a restriction enzyme followed by end filling with Klenow polymerase as previously described (33). The cleavage assays were performed as previously reported (34,35). The drug and the DNA in presence of topoisomerase I was incubated for 30 min at room temperature. The reactions were terminated by the addition of 5 μL of 5% SDS and 1 mg/mL […] with an additional 1 h of incubation at 37° C. […] After development of the gels, typically 24-h exposure was used to obtain autoradiograms outlining the extent of DNA fragmentation. Topoisomerase I-mediated DNA cleavage values are reported as Relative Effective Concentration (REC). […] Results for the assay for representative compounds of the invention of formula I along with comparison compounds are shown in Table 1.
smiles,measurement,setting,value
"COc1cc2c(C(=O)NCC(C)(C)N(C)C)cc3c4cc5c(cc4ncc3c2cc1OC)OCO5 [Compound 31, 2,3-Dimethoxy-N-(2-(dimethylamino)-2-methylpropyl)-8,9-methylene-dioxybenzo[i] phenanthridine-12-carboxamide]",IC50,[1],30 nM
same,IC50,KB3-1 cell line,1 nM
same,IC50,[2],2 nM
same,IC50,[3],250 nM
same,IC50,[4],790 nM
same,IC50,[5],4 nM
same,substrate for BCRP,[5]; not told,not substrates for BCRP
same,IC50,[6],2 nM
same,TOP1 Mediated DNA Cleavage (REC Value),human topoisomerase I,0.1
